Assay: xn = mol fraction of the nth substance listed
Conditions: 101 kPa, Liquid, Vibrating tube method

CCC(C)(C)O [2-methylbutan-2-ol] + CC(=O)O
mass density [kg/m3]
Conditions | 283.15 K | 293.15 K | 303.15 K | 313.15 K | 323.15 K | 333.15 K
x2 = 0.0794 | 819.64 | 814.95 | 810.22 | 800.6 | 790.72 | 780.53
x2 = 0.0827 | 820.07 | 815.38 | 810.64 | 801.02 | 791.14 | 780.94
x2 = 0.1664 | 832.07 | 827.35 | 822.59 | 812.92 | 803.02 | 792.86
x2 = 0.1672 | 832.17 | 827.45 | 822.69 | 813.02 | 803.12 | 792.96
x2 = 0.2361 | 842.73 | 838.01 | 833.24 | 823.57 | 813.68 | 803.54
x2 = 0.3176 | 856.35 | 851.61 | 846.84 | 837.15 | 827.25 | 817.14
x2 = 0.3914 | 869.87 | 865.1 | 860.3 | 850.57 | 840.64 | 830.51
x2 = 0.4798 | 887.62 | 882.8 | 877.94 | 868.11 | 858.1 | 847.89
x2 = 0.5577 | 904.94 | 900.05 | 895.12 | 885.16 | 875.04 | 864.74
x2 = 0.6427 | 925.88 | 920.88 | 915.86 | 905.72 | 895.44 | 885.01
x2 = 0.7195 | 946.94 | 941.83 | 936.71 | 926.37 | 915.92 | 905.33
x2 = 0.7999 | 971.66 | 966.42 | 961.16 | 950.58 | 939.91 | 929.13
x2 = 0.8769 | 998.52 | 993.12 | 987.72 | 976.88 | 965.96 | 954.98
x2 = 0.96 | 1031.62 | 1026.04 | 1020.47 | 1009.32 | 998.13 | 986.89

CCC(C)(C)O [2-methylbutan-2-ol] + CCC(=O)O
mass density [kg/m3]
Conditions | 283.15 K | 293.15 K | 303.15 K | 313.15 K | 323.15 K | 333.15 K
x2 = 0.0822 | 819.84 | 815.21 | 810.53 | 801.01 | 791.2 | 781.09
x2 = 0.16 | 830.58 | 825.94 | 821.26 | 811.74 | 801.99 | 791.96
x2 = 0.2419 | 842.49 | 837.85 | 833.18 | 823.69 | 814 | 804.06
x2 = 0.3189 | 854.39 | 849.75 | 845.08 | 835.62 | 825.96 | 816.07
x2 = 0.4024 | 868.02 | 863.37 | 858.68 | 849.19 | 839.53 | 829.68
x2 = 0.4806 | 881.53 | 876.85 | 872.13 | 862.6 | 852.91 | 843.03
x2 = 0.5588 | 895.71 | 890.97 | 886.21 | 876.6 | 866.84 | 856.93
x2 = 0.6429 | 911.85 | 907.05 | 902.23 | 892.5 | 882.64 | 872.64
x2 = 0.7218 | 927.93 | 923.03 | 918.13 | 908.25 | 898.28 | 888.18
x2 = 0.785 | 941.5 | 936.52 | 931.53 | 921.51 | 911.41 | 901.2
x2 = 0.8812 | 963.57 | 958.43 | 953.3 | 942.98 | 932.62 | 922.2
x2 = 0.9561 | 982.1 | 976.8 | 971.51 | 960.92 | 950.3 | 939.64

CCC(=O)O [propanoic acid] + CCC(C)O
mass density [kg/m3]
Conditions | 283.15 K | 293.15 K | 303.15 K | 313.15 K | 323.15 K | 333.15 K
x1 = 0.082 | 819.64 | 815.41 | 811.1 | 802.26 | 793.05 | 783.48
x1 = 0.1717 | 834.26 | 829.91 | 825.51 | 816.5 | 807.2 | 797.57
x1 = 0.2442 | 846.52 | 842.08 | 837.6 | 828.46 | 819.08 | 809.41
x1 = 0.32 | 859.63 | 855.12 | 850.56 | 841.3 | 831.82 | 822.11
x1 = 0.4004 | 873.99 | 869.39 | 864.76 | 855.37 | 845.79 | 836
x1 = 0.4773 | 887.98 | 883.3 | 878.59 | 869.08 | 859.4 | 849.54
x1 = 0.5609 | 903.61 | 898.85 | 894.07 | 884.41 | 874.61 | 864.65
x1 = 0.6404 | 918.81 | 913.96 | 909.09 | 899.28 | 889.36 | 879.3
x1 = 0.7186 | 934.19 | 929.25 | 924.29 | 914.32 | 904.27 | 894.07
x1 = 0.8009 | 950.85 | 945.79 | 940.74 | 930.57 | 920.34 | 910.02
x1 = 0.8776 | 966.89 | 961.72 | 956.55 | 946.17 | 935.75 | 925.26
x1 = 0.9593 | 984.54 | 979.23 | 973.9 | 963.26 | 952.61 | 941.92

From the NIST ThermoML archive (doi:10.1021/je201102x)
